IC50 data for 28 molecules are collected here from US20130237533A1, “CDK Inhibitors” (G1 THERAPEUTICS, INC., priority 2010, published 2013).

The first assay deals with CDK2/cyclinE (Homo sapiens, UniProt P24941). In words: Caliper LabChip kinase enzymatic assay, CDK2/cyclinE. The assay is classed as biochemical. Conditions: Table 2, class symbols; read-out: CDK2/CycE IC50. As to the method: Kinase enzymatic reactions were performed in 384-well microplates using a 12-channel Caliper LabChip instrument as a detection device. […] As substrate and product are separated, two peaks of fluorescence are observed. Change in the relative fluorescence intensity of the substrate and product peaks is the parameter measured, reflecting enzyme activity. In the presence of an inhibitor, the ratio between product and substrate is altered. The signal of the product decreases, while the signal of the substrate increases.
Potential inhibitor compounds (as HCl salts) were tested using 12-point dose response curves in single point at the Km, for ATP. The IC50 of each compound was determined using GraphPad Prism.
Take `O=C1NCC2(CCCC2)n2c1cc1cnc(Nc3ccc(N4CCSCC4)cn3)nc12` [Compound 41]: the IC50 fell in the range of 1000 to 100000 nM.

As to `O=C1NCC2(CCCC2)n2c1cc1cnc(Nc3ccc(N4CCC(N5CCCCC5)CC4)cn3)nc12` [Compound 40], the IC50 fell in the range of 1000 to 100000 nM.

As for `O=C1NCC2(CCCC2)n2c1cc1cnc(Nc3ccc(N4CCOCC4)cn3)nc12` [Compound 32], the IC50 is 1000 to 100000 nM.

As to `O=C1NCC2(CCCC2)n2c1cc1cnc(Nc3ccc(N4CCNCC4)cn3)nc12` [Compound 30], the IC50 was 1000 to 100000 nM.

As for `CN1C[C@H](C(C)(C)C)n2c(cc3cnc(Nc4ccc(N5CCNCC5)cn4)nc32)C1=O` [Compound 21], the IC50 was in the range of 1000 to 100000 nM.

`CC(C)C[C@H]1CNC(=O)c2cc3cnc(Nc4ccc(N5CCNCC5)cn4)nc3n21` [Compound 13]: the IC50 lay within 1000 to 100000 nM.

Turning to `CCC(C)[C@H]1CNC(=O)c2cc3cnc(Nc4ccc(N5CCNCC5)cn4)nc3n21` (some centres unmarked) [Compound 17], the IC50 lay within 1000 to 100000 nM.

Consider `CC1(C)CNC(=O)c2cc3cnc(Nc4ccc(N5CCNCC5)cn4)nc3n21` [Compound 26], for which the IC50 was 1000 to 100000 nM.

For `O=C1NCC2(CCCC2)n2c1cc1cnc(Nc3ccc(N4CCOCC4)nn3)nc12` [Compound 33], the IC50 fell in the range of 1000 to 100000 nM.

Take `O=C1NC[C@H](c2ccccc2)n2c1cc1cnc(Nc3ccc(N4CCNCC4)cn3)nc12` [Compound 23]: the IC50 is 100 to 1000 nM.

On to `CC(C)[C@H]1Cn2c(cc3cnc(Nc4ccc(N5CCNCC5)cn4)nc32)C(=O)N1` [Compound 24], for which the IC50 was 1000 to 100000 nM.

On to `CC(C)(C)[C@H]1CNC(=O)c2cc3cnc(Nc4ccc(N5CCNCC5)cn4)nc3n21` [Compound 20], for which the IC50 lay within 100 to 1000 nM.

Turning to `CC(C)[C@H]1CNC(=O)c2cc3cnc(Nc4ccc(N5CCNCC5)cn4)nc3n21` [Compound 10], the IC50 was in the range of 1000 to 100000 nM.

`CN1CCN(c2ccc(Nc3ncc4cc5n(c4n3)C3(CCCC3)CNC5=O)nc2)CC1` [Compound 29]: the IC50 lay within 1000 to 100000 nM.

Take `CC(C)CN1CCN(c2ccc(Nc3ncc4cc5n(c4n3)C3(CCCC3)CNC5=O)nc2)CC1` [Compound 36]: the IC50 lay in the range of 1000 to 100000 nM.

For `CC(C)[C@@H]1Cn2c(cc3cnc(Nc4ccc(N5CCNCC5)cn4)nc32)C(=O)N1` [Compound 25], the IC50 was 1000 to 100000 nM.

Turning to `O=C1NCC2(CCCC2)n2c1cc1cnc(Nc3ccc(N4CCCCC4)cn3)nc12` [Compound 38], the IC50 is 1000 to 100000 nM.

Take `CC(C)C1CNC(=O)c2cc3cnc(Nc4ccc(N5CCNCC5)cn4)nc3n21` (centres unmarked) [Compound 8]: the IC50 lay within 1000 to 100000 nM.

Regarding `O=C1NCCn2c1cc1cnc(Nc3ccc(N4CCNCC4)cn3)nc12` [Compound 3], the IC50 was more than 100000 nM.

With `CC(C)[C@@H]1CNC(=O)c2cc3cnc(Nc4ccc(N5CCNCC5)cn4)nc3n21` [Compound 9], the IC50 is 1000 to 100000 nM.

With `CCC(C)[C@H]1CNC(=O)c2cc3cnc(Nc4ccc(N5CCN(C)CC5)cn4)nc3n21` (some centres unmarked) [Compound 16], the IC50 was in the range of 1000 to 100000 nM.

With `CC(C)N1CCN(c2ccc(Nc3ncc4cc5n(c4n3)C3(CCCC3)CNC5=O)nc2)CC1` [Compound 35], the IC50 was 1000 to 100000 nM.

`O=C1NCC2(CCCC2)n2c1cc1cnc(Nc3ccc(N4CCC(N5CCOCC5)CC4)cn3)nc12` [Compound 39]: the IC50 lay within 1000 to 100000 nM.

Turning to `O=C1NCC2(CCCC2)n2c1cc1cnc(Nc3ccc(N4CCOCC4)cc3)nc12` [Compound 34], the IC50 fell in the range of 10 to 100 nM.

Take `CC(C)CC1CNC(=O)c2cc3cnc(Nc4ccc(N5CCNCC5)cn4)nc3n21` (centres unmarked) [Compound 46]: the IC50 was 1000 to 100000 nM.

With `CN1CCN(c2ccc(Nc3ncc4cc5n(c4n3)[C@@H](c3ccccc3)CNC5=O)nc2)CC1` [Compound 22], the IC50 was in the range of 1000 to 100000 nM.

For the molecule `CC1CN(c2ccc(Nc3ncc4cc5n(c4n3)C3(CCCC3)CNC5=O)nc2)CC(C)O1` (centres unmarked) [Compound 37], the IC50 lay in the range of 1000 to 100000 nM.

For the molecule `CC(C)C[C@H]1CNC(=O)c2cc3cnc(Nc4ccc(N5CCN(C)CC5)cn4)nc3n21` [Compound 12], the IC50 fell in the range of 1000 to 100000 nM.

Still in this assay, the particulars now being: enzyme 0.22 nM, (at the Km for ATP), one hour; 12-point dose response; compounds as HCl salts; read-out: CDK2/cyclinE IC50.
As to `O=C1NCCn2c1cc1cnc(Nc3ccc(N4CCNCC4)cn3)nc12` [Compound 3], the IC50 was more than 100000 nM.
